Data published in patent US20040152868A1, “Compositions and methods for modulating guanylyl cyclase signaling receptor (gc-c) activity and for treating meniere's disease” (priority 2001, published 2004).
Like-named read-outs stand apart in the source and are kept apart here. Bridge positions count the residues as written; N and C are the ends. Square brackets hold non-standard residues; d marks the D form. Ends that are not written are not given here. Peptide text beside a SMILES is read from it. 2Nal = N[C@@H](Cc1ccc2ccccc2c1)C(=O)O

Legend:
[1] = biological target: T1, guanylyl cyclase (GC-C) receptor (Homo sapiens, UniProt P25092); experiment: cGMP-efficacy on T84 cells (stimulation of cGMP formation); type: cell-based; settings: cGMP formation in T84 cells; for EC50: efficacy assay of Example 1
T1 construct: stimulation of cGMP in T84 cell cultures may be used as an efficacy assay; endogenous in cells; host or cells: T84 (human colon carcinoma cell line)
T1 sequence (P25092 24-1073): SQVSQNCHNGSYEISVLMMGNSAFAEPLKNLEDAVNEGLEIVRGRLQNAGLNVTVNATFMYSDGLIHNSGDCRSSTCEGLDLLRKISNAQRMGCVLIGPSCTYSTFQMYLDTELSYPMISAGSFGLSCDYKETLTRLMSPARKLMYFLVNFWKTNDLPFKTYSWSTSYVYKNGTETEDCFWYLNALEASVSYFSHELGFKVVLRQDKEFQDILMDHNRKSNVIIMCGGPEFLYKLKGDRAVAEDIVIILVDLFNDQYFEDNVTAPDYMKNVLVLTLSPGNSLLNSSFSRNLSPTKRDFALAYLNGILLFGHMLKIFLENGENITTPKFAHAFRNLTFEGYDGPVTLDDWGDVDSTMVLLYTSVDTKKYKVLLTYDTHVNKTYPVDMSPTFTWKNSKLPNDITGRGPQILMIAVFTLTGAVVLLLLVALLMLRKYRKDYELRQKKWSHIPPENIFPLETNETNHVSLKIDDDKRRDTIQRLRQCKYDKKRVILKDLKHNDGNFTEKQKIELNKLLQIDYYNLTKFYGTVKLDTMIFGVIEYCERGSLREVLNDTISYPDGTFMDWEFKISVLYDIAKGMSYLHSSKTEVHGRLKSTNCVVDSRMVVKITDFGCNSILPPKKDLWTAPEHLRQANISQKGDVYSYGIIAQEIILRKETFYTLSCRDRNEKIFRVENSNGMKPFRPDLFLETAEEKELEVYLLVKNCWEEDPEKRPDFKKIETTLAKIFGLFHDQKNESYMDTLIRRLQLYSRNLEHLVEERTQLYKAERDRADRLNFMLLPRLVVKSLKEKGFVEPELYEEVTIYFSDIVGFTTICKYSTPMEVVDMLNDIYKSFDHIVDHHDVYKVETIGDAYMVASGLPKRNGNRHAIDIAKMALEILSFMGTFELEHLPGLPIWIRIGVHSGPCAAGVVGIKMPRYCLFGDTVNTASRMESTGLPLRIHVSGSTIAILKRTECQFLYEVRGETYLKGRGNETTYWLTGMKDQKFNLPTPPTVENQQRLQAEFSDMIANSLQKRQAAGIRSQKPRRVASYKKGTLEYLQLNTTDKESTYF
Procedure: T84 cells are grown to near confluence in DMEM medium and Ham's F-12 medium (1:1) supplemented with 5% Foetal Calf Serum (FCS), […] in 175 cm^2 culture flasks (Nunc) at 37° C., 5% CO2 and 100% humidity. Cells are harvested in ice-cold PBS and centrifuged at 100×G for 10 min at 4° C. The sedimented cells are lysed in 2.5 ml dist. H2O/culture flask at 0° C. for 30 min and centrifuged at 50,000×G 4° C. for 45 min. The membrane pellet is taken up in binding buffer (50 mM HEPES, 1 mM EDTA, 10 mM MgCl2, pH 7.4) supplemented with 10% sucrose and stored at −80° C. until use.
For stimulation of cGMP formation, cells are seeded in 96-well microtiter plates (Nunc) at a density of 2500 cells/well (˜7576 cells/cm^2) and grown for 3 days before use under the same culture conditions mentioned above.
On the day of analysis growth medium is removed and the T84 cells are washed twice in Dulbeccos Phosphate Buffered Saline™ (D-PBS) containing 6 mM glucose at 37° C. Cells are then incubated at 37° C. for 40 min in the same medium supplemented with 2 mM IBMX (a phosphodiesterase inhibitor) and increasing concentrations of test compounds. The reaction is stopped by addition of ice-cold 20 μl 0.50 M HCl and incubation on ice for further 20 min. 20 μl of the acid extract is used for determination of cGMP by the FlashPlate™ technique and another 20 μl is used for determination of protein content.
Data from the cGMP experiments are treated in an analogueous way and fitted to:
f=(cGMPmax−cGMPbasic)*s/(s+EC50)+cGMPbasic
where cGMPmax is maximal obtainable cGMP and cGMPbasic is the basic level of cellular cGMP. EC50 is the concentration giving half maximum effect and s the concentration of test compound. […]

[2] = otoacoustic emission (DP-gram) in rats after 14 days i.p. infusion; type: in vivo, rat
Procedure: In this example, rats were given 8 nmol/kg/h of Compound 1 intraperitoneally for 14 days via Alzet osmotic pumps. Otoacoustic emissions were measured before treatment and at the end of treatment. Urine samples were collected during infusion, and the natriuretic effect of Compound 1 was measured by flame spectroscopy.
18 female Sprague-Dawley rats weighing 250 g each were divided into two groups. In total, 8 control animals received vehicle and 10 animals received COMPOUND 1. During the experiment the animals had free access to food and water.
Prior to the study COMPOUND 1 was dissolved in 50 mM phosphate buffer pH 4.0 containing 1% BSA and loaded into Alzet osmotic pumps. The pumps were then surgically inserted into the peritoneum of the rats administering 8 nmol/kg/h for 14 days. After insertion of the pumps the animals were placed in metabolic cages for a week, and samples of urine were collected every 24 hrs from Day 0 through Day 6.
The rats were all tested before the start of the study and at the end of the study. […]
The only DPOAE measured were the amplitude of cubic distortion product 2f1-f2, and always with the level of f1 (L1) 10 dB higher than the level of f2 (L2=L1-10 dB). The output of the ER-10B microphone was feed to a B&K (Nexus) amplifier and analysed on an HP 35670A spectrum. […]

[3] = standard diuresis assay / renal clearance in conscious rats with arterial pressure and heart rate recording; type: in vivo, rat
Procedure: Male Sprague-Dawley rats weighing 350-370 g (M&B, Denmark) were anaesthetized with a subcutaneous injection of 2 ml/kg of a 1:1 mixture of Hypnorm® (fentanyl citrate 0.315 mg/ml and fluanisone 10 mg/ml) and Dormicum® (midazolam 5 mg/ml) diluted 1:1 in distilled water. Permanent catheters were inserted into the femoral vein and artery. The i.v. line is used for i.v. infusion and the arterial line is used for continuous intra-arterial blood pressure recording and withdrawal of blood samples. A permanent supra-pubic catheter was inserted into the urinary bladder, which allowed fractionated urine collection and determination of urine flow rate. Animals were allowed about one week of recovery before they were used for experiments.
On the day of the experiment, the rat was placed in a lucid restrainer. […] To obtain a stable urine production under these conditions, the rat was slightly water loaded by i.v. infusion of a hypotonic glucose solution (150 mM glucose; 100 μl/min the first 15 min, then 25 μl/min throughout the experiment). The arterial line was connected to a pressure transducer (Baxter Truware: PX-260 Uden, Netherlands) and the pulsatile arterial blood pressure was amplified (×1.000-10.000) via a Hugo Sachs Electronic Tranducer Amplifier Module model 705/1. The analogue signal was digitalized via a 12 bit data acquisition board (Data Translation model DT321) and sampled at 1000 Hz using the Notocord HEM version 4 software for Windows NT. The systolic peak pressure triggered a software heart rate module that calculated heart rate beat-to-beat.
After a 60 minutes equilibration period, fractionated collection of urine was started (t=0). After 4 control periods (4×15 minutes), a bolus injection of Mouse-Guanylin-Asp—OH, 10 μmol/kg i.v was administered and collection of urine was collected in 15 minute periods for 3 hours (period […]). Urine volume was measured gravimetrically. The urine samples were stored at −20° C. until further analysis. Urine was analysed for sodium and potassium using a using a flame spectrophotometer (Instrumentation Laboratory, model IL 943).

[4] = rat, in vivo; cited from earlier work
[5] = biological target: T1, guanylyl cyclase (GC-C) receptor; settings: T84 cells, reported values; cited from earlier work

For `CC[C@H](C)[C@@H]1NC(=O)[C@H](CCC(=O)O)NC(=O)[C@@H](NC(=O)[C@@H](NC(=O)[C@H](CC(N)=O)NC(=O)[C@@H]2CCCN2)[C@@H](C)O)CSSC[C@@H]2NC(=O)[C@H](C)NC(=O)[C@H](C)NC(=O)[C@H](Cc3ccc(O)cc3)NC(=O)[C@H](C)NC(=O)[C@H](CSSC[C@@H](C(N)=O)NC(=O)CNC(=O)[C@H]([C@@H](C)O)NC2=O)NC1=O` [Compound 1, Mouse-Guanylin-NH2, H-PNTC*EICAYAAC*TGC-NH2 (double oxidised C to C and C* to C*)] (H-PNTCEICAYAACTGC-NH2; disulfide 4-12, 7-15), the EC50 ([1]; read-out: EC50) was 6.1 µM, the “otoacoustic emission at 14 to 16 kHz” value ([2]; 8 nmol/kg/h intraperitoneally for 14 days via Alzet osmotic pumps) was “significant decrease” and the “change in otoacoustic emission from before to after treatment (2-way ANOVA)” value ([2]; 14 days, most pronounced at the 14 kHz level) was “significant decrease”.
`CC[C@H](C)[C@@H]1NC(=O)[C@H](CCC(=O)O)NC(=O)[C@@H](NC(=O)[C@@H](N)[C@@H](C)O)CSSC[C@@H]2NC(=O)[C@H](C)NC(=O)[C@H](C)NC(=O)[C@H](Cc3ccccc3)NC(=O)[C@H](C)NC(=O)[C@H](CSSC[C@@H](C(=O)N[C@@H](CC(C)C)C(N)=O)NC(=O)CNC(=O)[C@H]([C@@H](C)O)NC2=O)NC1=O` [Compound 5, des-Pro^1, des-Asn^2[Phe^9]Guanylin-L-NH2 (rat/mouse)] (H-TCEICAFAACTGCL-NH2; disulfide 2-10, 5-13 (inferred)) showed an EC50 ([1]; read-out: EC50) of 28 µM.
`CC[C@H](C)[C@@H]1NC(=O)[C@H](CCC(=O)O)NC(=O)[C@@H](NC(=O)[C@@H](N)[C@@H](C)O)CSSC[C@@H]2NC(=O)[C@H](C)NC(=O)[C@H](C)NC(=O)[C@H](Cc3ccc4ccccc4c3)NC(=O)[C@H](C)NC(=O)[C@H](CSSC[C@@H](C(=O)N[C@@H](CC(C)C)C(N)=O)NC(=O)CNC(=O)[C@H]([C@@H](C)O)NC2=O)NC1=O` [Compound 6, des-Pro^1, des-Asn^2[2-Nal^9]Guanylin-L-NH2 (rat/mouse)] (H-TCEICA[2Nal]AACTGCL-NH2; disulfide 2-10, 5-13) showed an EC50 ([1]; read-out: EC50) greater than 100 µM.
`CC[C@H](C)[C@@H]1NC(=O)[C@H](CCC(=O)O)NC(=O)[C@@H](NC(=O)[C@@H](N)[C@@H](C)O)CSSC[C@@H]2NC(=O)[C@H](C)NC(=O)[C@H](C)NC(=O)[C@H](Cc3ccc(O)cc3)NC(=O)[C@H](C)NC(=O)[C@H](CSSC[C@@H](C(=O)N[C@@H](CC(C)C)C(=O)N[C@@H](CCCCN)C(=O)N[C@@H](CCCCN)C(N)=O)NC(=O)CNC(=O)[C@H]([C@@H](C)O)NC2=O)NC1=O` [Compound 8, des-Pro^1, des-Asn^2Guanylin-LKK-NH2 fully oxidised(1-3, 2-4) (rat/mouse): H-TCEICAYAACTGCLKK-NH2 oxidised(1-3, 2-4)] (H-TCEICAYAACTGCLKK-NH2; disulfide 2-10, 5-13) showed an EC50 ([1]; read-out: EC50) of 29 µM.
With “Cyclo(Gly-Glu-Ile-Gly-Ala-Tyr-Ala-Ala-Gly-Thr-Gly-Gln-) (GEIGAYAAGTGQ; cyclic; printed: Gly-Glu-Ile-Gly-Ala-Tyr-Ala-Ala-Gly-Thr-Gly-Gln-) [Compound 4]” the EC50 [1] was “No effect”.
For “Guanylin-Asp-Lys6-NH2 (rat/mouse) [Compound 12]”, the “agonist character at GC-C” value [1] was “potent agonist”.
In the case of Mouse-Guanylin-Asp-OH [Compound 13], the “effect on heart rate” value ([3]; conscious rats, 10 μmol/kg i.v.) is reported as “no effect”, the “increase in mean arterial blood pressure” value ([3]; conscious rats, 10 μmol/kg i.v. bolus, immediate and sustained) is reported as 15-20 mmHg and the “effect on urinary potassium excretion rate” value ([3]; rats, 10 μmol/kg i.v.) is reported as “rapid and transient increase”. The “effect on urinary sodium excretion rate” value ([3]; rats, 10 μmol/kg i.v.) was “immediate and sustained increase” and the “effect on urine flow rate” value ([3]; rats, 10 μmol/kg i.v.) was “rapid and transient increase”.
With “SPNFIWK [Compound 3, H-Ser-Pro-Asn-Phe-Ile-Trp-Lys—NH2]” the EC50 [1] was “No effect”.
With “des-Pro^1, des-Asn^2Guanylin-LKK-NH2 mono oxidised(1-3) (rat/mouse) [Compound 7]” the EC50 [1] was “No effect”.
For “guanylin (PGTCEICAYAACTGC; ends and bridges not checked; cysteine pairing not given here; UniProt Q02747 101-115, looked up)”, the “diuretic, natriuretic and kaliuretic effect” value [4] is listed as “substantial diuretic, natriuretic and kaliuretic effect” and the “increase in cGMP production reported” value [5] is listed as 300 fold.
In the case of “uroguanylin (NDDCELCVNVACTGCL; ends and bridges not checked; cysteine pairing not given here; UniProt Q16661 97-112, looked up) [synthetic uroguanylin, member of the guanylin peptide family]”, the “increase in cGMP production reported” value [5] is given as 300 fold.
